# System: Lewis lung cancer cells
# Experiment: Tumor growth inhibition assay in vivo of vinorelbine micellar preparation
# Set-up: species or system Balb/c mice
# Details: for Volume of tumor (mm^3): 5 mg/kg iv on the 1st, 8th and 15th day
# Description: Fresh Lewis lung cancer cells (ATTC, CRL-1642) were inoculated subcutaneously into the axillary region of right forelimb of Balb/c mice (1×10^7/ml, 0.2 ml/mice). The mice (17-19 g, female) bearing tumor were then randomly divided into three groups, i.e. control group, free vinorelbine group (F-VNR) and vinorelbine micelle group (M-VNR), 6 mice each group. Administration was carried out on the next day to the inoculation. The doses of both F-VNR and M-VNR were 5 mg/kg (drug concentration: 0.5 mg/ml), iv volume 0.1 ml/10 g body weight, and the dose of the control group was iv 0.1 ml/10 g body weight of physiological saline. Dosing was performed once a week and continued for three weeks (dosing on the 1st, 8th and 15th day, respectively), wherein the length (a) and width (b) of the tumors were measured with vernier caliper on the 7th, 10th, 14th, 17th, and 21th day, respectively. The volume of the tumor was calculated according the formula V=a×b^2/2. […] The experiment results were shown in FIG. 5 as well as following table.
compound,measurement,setting,value
"CCC1=C[C@@H]2CN(C1)Cc1c([nH]c3ccccc13)[C@@](C(=O)OC)(c1cc3c(cc1OC)N(C)[C@H]1[C@@](O)(C(=O)OC)[C@H](OC(C)=O)[C@]4(CC)C=CCN5CC[C@]31[C@@H]54)C2 [F-VNR, vinorelbine]",effect on growth of Lewis lung cancer tumor (in words),5 mg/kg iv once a week for three weeks,almost ineffective
same,Volume of tumor (mm^3),7 days,217 ± 94.5 mm^3
same,Volume of tumor (mm^3),10 days,810.3 ± 407.6 mm^3
same,Volume of tumor (mm^3),14 days,1694.3 ± 789.1 mm^3
same,Volume of tumor (mm^3),17 days,2460.1 ± 1367.1 mm^3
same,Volume of tumor (mm^3),21 days,5163 ± 2623.8 mm^3
